How the values were obtained:
CYPSE (Flatsedge) = experiment: Preemergence weed control under flooded paddy conditions; assay type: in vivo, Cyperus serotinus; conditions: rated 3-4 weeks after treatment
Summary of the method: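 Ratings on a 0-9 visual scale cover stand, vigor, malformation, size, chlorosis and overall appearance relative to a control, taken three to four weeks post-treatment. Application was into flood water over freshly sown silt loam at roughly 0.0313 to 0.500 kg/ha.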

[1] = system: TRZAWR (Wheat, Winter, cv Riband); experiment: Postemergence herbicidal evaluation; assay type: in vivo, Triticum aestivum; conditions: postemergence
Summary of the method: (§1)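 Two-week seedlings sprayed postemergence at 40 psi; formulation: 1:1 acetone/water, 0.5% TWEEN 20; application ≈0.0156–0.500 kg/ha. Greenhouse grow-out, then 0–9 visual scoring at 4–5 weeks.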

ECHCG (Barnyardgrass) = experiment: Preemergence herbicidal evaluation; assay type: in vivo, Echinochloa crus-galli; conditions: rated 4-5 weeks after treatment
Summary of the method: (§2)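 Seeds were mixed with potting soil and planted on about one inch of soil, then sprayed with test compound in aqueous acetone at about 0.0156 to 0.500 kg per hectare. Plants grew under standard greenhouse care and were visually rated 0-9 against untreated controls 4-5 weeks post-treatment.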

SETVI (Foxtail, Green) = experiment: Preemergence herbicidal evaluation; assay type: in vivo, Setaria viridis; conditions: rated 4-5 weeks after treatment
Summary of the method: as §2

[2] = system: ECHORC (Watergrass (Calif.)); experiment: Preemergence weed control under flooded paddy conditions; assay type: in vivo, Echinochloa oryzoides; conditions: rated 3-4 weeks after treatment
Summary of the method: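 Seeds or propagules sown in silt loam kept flooded 1.5-3 cm; compounds in 50/50 acetone/water pipetted into flood water at about 0.0313 to 0.500 kg/ha. Greenhouse; visual 0-9 rating versus untreated control 3-4 weeks after treatment.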

ZEAMX (Corn, Field) [3] = experiment: Preemergence herbicidal evaluation; assay type: in vivo, Zea mays; conditions: rated 4-5 weeks after treatment
Summary of the method: as §2

AMBEL (Ragweed, Common) = experiment: Preemergence herbicidal evaluation; assay type: in vivo, Ambrosia artemisifolia; conditions: rated 4-5 weeks after treatment
Summary of the method: as §2

[4] = system: CHEAL (Lambsquarters, Common); experiment: Preemergence herbicidal evaluation; assay type: in vivo, Chenopodium album; conditions: rated 4-5 weeks after treatment
Summary of the method: as §2

CYPIR (Rice Flatsedge) = experiment: Postemergence weed control under flooded paddy conditions; assay type: in vivo, Cyperus iria; conditions: postemergence weeds, 3-4 weeks after treatment
Summary of the method: (§3)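 Containers holding 3–5 cm weeds and rice at 1.5–2.5 leaves are flooded to 1.5–3 cm above soil. Compound in 50/50 v/v aqueous/acetone is then added directly to the water, about 0.0313–0.500 kg/ha. Plants are kept in the greenhouse and rated 0–9 visually at 3–4 weeks.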

CASOB (Sicklepod) = experiment: Postemergence herbicidal evaluation; assay type: in vivo, Cassia obtusifolia; conditions: postemergence
Summary of the method: as §1

MOOVA (Monochoria) = experiment: Postemergence weed control under flooded paddy conditions; assay type: in vivo, Monochoria vaginalis; conditions: postemergence weeds, 3-4 weeks after treatment
Summary of the method: as §3

ZEAMX (Corn, Field) [5] = experiment: Postemergence herbicidal evaluation; assay type: in vivo, Zea mays; conditions: postemergence
Summary of the method: as §1

CC1SC(=Nc2cc(N3C(=O)C4=C(CCCC4)C3=O)c(F)cc2Cl)N(C)C1=O (centres unmarked) [Compound 4]
2.0: ECHCG preemergence herbicidal rating (ECHCG (Barnyardgrass); rate 0.2500 kg/ha) | SETVI preemergence herbicidal rating (SETVI (Foxtail, Green); rate 0.1250 kg/ha) | Herbicidal rating ECHORC ([2]; 0.0313 kg/ha) | ZEAMX preemergence herbicidal rating (ZEAMX (Corn, Field) [3]; rate 0.1250 kg/ha) | ZEAMX preemergence herbicidal rating (ZEAMX (Corn, Field) [3]; rate 0.2500 kg/ha) | CHEAL preemergence herbicidal rating ([4]; rate 0.2500 kg/ha) | Herbicidal rating CYPIR (CYPIR (Rice Flatsedge); rate 0.0625 kg/ha) | CASOB herbicidal rating (CASOB (Sicklepod); rate 0.5000 kg/ha)
0.0: Herbicidal rating CYPSE (CYPSE (Flatsedge); 0.0313 kg/ha) | Herbicidal rating CYPSE (CYPSE (Flatsedge); 0.0625 kg/ha) | Herbicidal rating CYPSE (CYPSE (Flatsedge); 0.1250 kg/ha) | Herbicidal rating CYPSE (CYPSE (Flatsedge); 0.2500 kg/ha) | Herbicidal rating CYPSE (CYPSE (Flatsedge); 0.5000 kg/ha) | ECHCG preemergence herbicidal rating (ECHCG (Barnyardgrass); rate 0.1250 kg/ha) | AMBEL preemergence herbicidal rating (AMBEL (Ragweed, Common); rate 0.1250 kg/ha) | CHEAL preemergence herbicidal rating ([4]; rate 0.1250 kg/ha) | Herbicidal rating CYPIR (CYPIR (Rice Flatsedge); rate 0.0313 kg/ha) | CASOB herbicidal rating (CASOB (Sicklepod); rate 0.0313 kg/ha) | CASOB herbicidal rating (CASOB (Sicklepod); rate 0.0625 kg/ha) | CASOB herbicidal rating (CASOB (Sicklepod); rate 0.1250 kg/ha) | CASOB herbicidal rating (CASOB (Sicklepod); rate 0.2500 kg/ha)
3.5: TRZAWR herbicidal rating ([1]; rate 0.0625 kg/ha) | Herbicidal rating MOOVA (MOOVA (Monochoria); rate 0.0625 kg/ha) | ZEAMX herbicidal rating (ZEAMX (Corn, Field) [5]; rate 0.0625 kg/ha)
6.0: ECHCG preemergence herbicidal rating (ECHCG (Barnyardgrass); rate 0.5000 kg/ha)
6.5: Herbicidal rating CYPIR (CYPIR (Rice Flatsedge); rate 0.2500 kg/ha)
7.0: Herbicidal rating ECHORC ([2]; 0.1250 kg/ha)
8.0: Herbicidal rating ECHORC ([2]; 0.2500 kg/ha) | Herbicidal rating MOOVA (MOOVA (Monochoria); rate 0.5000 kg/ha)
3.0: TRZAWR herbicidal rating ([1]; rate 0.0313 kg/ha) | ZEAMX herbicidal rating (ZEAMX (Corn, Field) [5]; rate 0.0313 kg/ha)
1.0: AMBEL preemergence herbicidal rating (AMBEL (Ragweed, Common); rate 0.2500 kg/ha) | Herbicidal rating MOOVA (MOOVA (Monochoria); rate 0.0313 kg/ha)
9.0: SETVI preemergence herbicidal rating (SETVI (Foxtail, Green); rate 0.5000 kg/ha) | Herbicidal rating ECHORC ([2]; 0.5000 kg/ha) | CHEAL preemergence herbicidal rating ([4]; rate 0.5000 kg/ha) | Herbicidal rating CYPIR (CYPIR (Rice Flatsedge); rate 0.5000 kg/ha)
4.5: TRZAWR herbicidal rating ([1]; rate 0.2500 kg/ha) | TRZAWR herbicidal rating ([1]; rate 0.5000 kg/ha) | Herbicidal rating CYPIR (CYPIR (Rice Flatsedge); rate 0.1250 kg/ha)
4.0: TRZAWR herbicidal rating ([1]; rate 0.1250 kg/ha) | SETVI preemergence herbicidal rating (SETVI (Foxtail, Green); rate 0.2500 kg/ha) | Herbicidal rating ECHORC ([2]; 0.0625 kg/ha) | ZEAMX preemergence herbicidal rating (ZEAMX (Corn, Field) [3]; rate 0.5000 kg/ha) | AMBEL preemergence herbicidal rating (AMBEL (Ragweed, Common); rate 0.5000 kg/ha) | Herbicidal rating MOOVA (MOOVA (Monochoria); rate 0.1250 kg/ha) | ZEAMX herbicidal rating (ZEAMX (Corn, Field) [5]; rate 0.1250 kg/ha) | ZEAMX herbicidal rating (ZEAMX (Corn, Field) [5]; rate 0.2500 kg/ha) | ZEAMX herbicidal rating (ZEAMX (Corn, Field) [5]; rate 0.5000 kg/ha)
5.5: Herbicidal rating MOOVA (MOOVA (Monochoria); rate 0.2500 kg/ha)

Reference: patent US20020137929A1, “1 - (3-heterocyclylphenyl) isothiourea, -isourea, -guanidine and -amidine herbicidal agents” (Intellectual Property Department, BASF Aktiengesellschaft, priority 1998, published 2002)
